# Results reported in patent US12527785B2, “Renin-angiotensin-aldosterone system (RAAS) inhibitors in the treatment of pancreatic ductal carcinoma” (OCHSNER CLINIC FOUNDATION, priority 2023, dated 2026).
# Columns and labels:
# [1] = test system: PANC-1 tumor orthotopic xenograft; assay: PANC-1 tumor orthotopic xenograft mouse model (BLI tumor burden, tumor weight); type: in vivo; conditions: four weeks; for Tumor weight, % of control / Tumor weight, mean: Table 19; for Tumor weight, mean: control 0.425; for BLI data, mean: control 3.003
# Excerpt: Human PDCA cell line PANC-1 was transduced with pre-made lentiviral vectors encoding luciferase (firefly)/red fluorescent protein (RFP) to enable monitoring of the growth of primary tumor and metastasis. […] For in vivo experiments, Nonobese diabetic/severe combined immunodeficiencyNOD-SCID mice (Jackson Labs, Bar Harbor, ME, or inhouse breeding) were first brought under anesthesia with isoflurane (2.5% in 100% oxygen, 1 L/min) in an induction chamber and maintained under adequate anesthesia (isoflurane inhalation) while being laid on a warming pad throughout the surgical procedure. For tumor generation, 5×10^4 luciferase-tagged PANC-1 cells were co-inoculated with 3×10^5 lymph node stromal cell (LNSC) analog HK cells. The mice received a 0.75-1.2 cm long incision (on the left side of the body slightly medial to the splenic silhouette) to exteriorize the spleen and pancreas. While gently retracting the pancreas laterally, a 30 G needle was inserted along the length of the pancreas from the tail to the pancreatic head region. Then, 10 μl of cell suspension was injected as the needle was withdrawn to the mid-body of the pancreas. The needle was removed, and the area was inspected for leakage and bleeding. The pancreas and spleen were internalized with forceps and the abdominal muscle layer was closed with interrupted stitches (3-0 silk suture). The overlying skin was closed with a second set of interrupted stitches. Buprenorphine SR-LAB was injected subcutaneously immediately after the surgery for pain relief.
# After the surgery, tumor growth and metastatic tumor burden were monitored and assessed weekly for luciferase activity by bioluminescence imaging (BLI) using Lago Imaging System (Spectral Instruments Imaging, Tucson, AZ). Mice were anesthetized using isoflurane for all imaging procedures. Mice were administered intraperitoneally with luciferin (10 mg/kg) and imaged in 10-20 minutes for maximum luciferase signal plateau. Images were analyzed using Aura Imaging software. Once the BLI levels of xenografted tumor reached 5×10^8 photons (around 7-9 weeks post PANC-1 cell injection), the mice were grouped based on their BLI level and compounds (e.g., drugs) of the present disclosure were given by gavage daily to each group for 4 weeks. […] Upon sacrifice after 4 weeks of treatment, primary tumors and mouse organs were harvested, weighed, imaged, and formalin-fixed for (hematoxylin and eosin) H&E and immunohistochemistry staining. Data was statistically analyzed using t-test, or t-test with Bonferroni correction.
# [2] = mouse, in vivo; cited from earlier work
# PANC-1 cells = assay: WST1 cell proliferation assay, PANC-1 cells; type: cell-based, human
# Procedure: (§1) PDA cell line (PANC-1 or HS766T) or patient cancer cells (PaCa9) were trypsinized with 1% trypsin in Hank's Balanced Salt Solution (HBSS), counted, washed, and resuspended in serum free AIM media (ThermoFisher Scientific, Waltham, MA) or complete Dulbecco's Modified Eagle Medium (DMEM) supplemented with 10% fetal bovine serum, […], 100 U/ml of penicillin G, and […] of streptomycin. Cells at a concentration of 2-4×10^4 cells/well in 100 μl culture medium were seeded in triplicate in 96 well plates, then cultured in a humidified incubator at 37° C. and 5% CO2. On the next day, cell supernatant was discarded and compounds (e.g., drugs) of the present disclosure in 200 μl medium were added with the concentrations indicated in the following Examples. After 72 hours of culture, cell proliferation reagent WST1 (20 μl/well, Sigma Aldrich Inc, St. Louis, MO) were added and plates were read using an ELISA reader at 2 hours and 4 hours under the wavelength of 450 nm. The measured absorbance (OD value) was recorded and graphed and statistically analyzed using GraphPad Prism 8, t-test, or t-test with Bonferroni correction.
# HS766T cells = assay: WST1 cell proliferation assay, HS766T cells; type: cell-based
# Procedure: as §1
# [3] = test system: PaCa-9 PDAC patient tumor cells; assay: WST1 cell proliferation assay, PaCa-9 PDAC patient tumor cells; type: cell-based, human; conditions: for cell proliferation, WST1 absorbance (OD value, 450 nm), mean: 10% FCS-DMEM
# Procedure: as §1, with “Louis, MO) were added and plates were read using an ELISA reader at 2 hours and 4 hours under the wavelength of 450 nm.” left out
# [4] = test system: PDCA cells (PANC-1, HS766T, PaCa9); assay: In vitro PDCA cell proliferation (WST1), summary statements over the cell lines tested; type: cell-based
# Procedure: as §1
# [5] = 0.1 mg/kg by subcutaneous injection; cited from earlier work
# [6] = Candesartan Cilexitil (60 mg/kg)
smiles,measurement,setting,value
CCOc1nc2cccc(C(=O)OC(C)OC(=O)OC3CCCCC3)c2n1Cc1ccc(-c2ccccc2-c2nnn[nH]2)cc1 (stereo not shown) [Candesartan Cilexitil],"Tumor weight, % of control",[1]; [6],38%
same,"Tumor weight, mean",[1]; [6],0.163 g
same,Safety of oral administration to mice,[2],safely
CCOc1nc2cccc(C(=O)O)c2n1Cc1ccc(-c2ccccc2-c2nnn[nH]2)cc1 [Candesartan],"Effective (statistically significant, p<0.05, decrease in cell proliferation by WST1 assay)",PANC-1 cells; 20 μM,effective
same,"cell proliferation, WST1 absorbance (OD value, 450 nm), mean","PANC-1 cells; Candesartan 20 μM, Table 5A, 10% FCS-DMEM, 2×10^4 cells per well, Medium/DMSO 3.348",0.612
same,"Effective (statistically significant, p<0.05, decrease in cell proliferation by WST1 assay)",HS766T cells; 20 μM,effective
same,"cell proliferation, WST1 absorbance (OD value, 450 nm), mean","HS766T cells; Candesartan 10 μM, Table 2, 2 h, 10% FCS-DMEM, control 3.214",2.856
same,"cell proliferation, WST1 absorbance (OD value, 450 nm), mean","HS766T cells; Candesartan 20 μM, Table 6A, 10% FCS-DMEM, 2×10^4 cells per well, control 3.339",0.620
same,"Effective (statistically significant, p<0.05, decrease in cell proliferation by WST1 assay)",[3]; 20 μM,effective
same,"cell proliferation, WST1 absorbance (OD value, 450 nm), mean","[3]; Candesartan 10 μM, Table 3, 1 h, Medium/DMSO 3.571",3.694
same,"cell proliferation, WST1 absorbance (OD value, 450 nm), mean","[3]; Candesartan 20 μM, Table 7A, 2×10^4 cells per well, control 3.535",0.464
same,Minimum effective dose (concentration) in vitro,"[4]; PANC-1, Hs766T and PaCa9 cells",~20 µM
same,Change in cellular proliferation,[4]; candesartan 10 μM,no statistical change in cellular proliferation
same,"BLI data, % of control",[1]; Candesartan (30 mg/kg),67%
same,"BLI data, mean",[1]; Candesartan (30 mg/kg),2.016
CCCCc1nc(Cl)c(CO)n1Cc1ccc(-c2ccccc2-c2nn[nH]n2)cc1 [Losartan],"cell proliferation, WST1 absorbance (OD value, 450 nm), mean","PANC-1 cells; Losartan 100 μM, Table 1, 2 h, 10% FCS-DMEM, control 3.618",2.507
same,"cell proliferation, WST1 absorbance (OD value, 450 nm), mean","PANC-1 cells; Losartan 100 μM, Table 5A, 10% FCS-DMEM, 2×10^4 cells per well, Medium/DMSO 3.348",3.699
same,"cell proliferation, WST1 absorbance (OD value, 450 nm), mean","HS766T cells; Losartan 100 μM, Table 2, 2 h, 10% FCS-DMEM, control 3.214",2.992
same,"cell proliferation, WST1 absorbance (OD value, 450 nm), mean","HS766T cells; Losartan 100 μM, Table 6A, 10% FCS-DMEM, 2×10^4 cells per well, control 3.339",3.182
same,"cell proliferation, WST1 absorbance (OD value, 450 nm), mean","[3]; Losartan 100 μM, Table 3, 1 h, Medium/DMSO 3.571",3.392
same,"cell proliferation, WST1 absorbance (OD value, 450 nm), mean","[3]; Losartan 100 μM, Table 7A, 2×10^4 cells per well, control 3.535",3.161
same,Change in cellular proliferation,[4]; losartan 100 μM,no statistical change in cellular proliferation
same,"BLI data, % of control",[1]; Losartan (60 mg/kg),73%
same,"Tumor weight, % of control",[1]; Losartan (60 mg/kg),87%
same,"Tumor weight, mean",[1]; Losartan (60 mg/kg),0.3691 g
same,"BLI data, mean",[1]; Losartan (60 mg/kg),2.199
CC(=O)S[C@@H]1CC2=CC(=O)CC[C@]2(C)[C@H]2CC[C@@]3(C)[C@@H](CC[C@@]34CCC(=O)O4)[C@H]12 [Spironolactone],"Tumor weight, % of control",[1]; Spironolactone (100 mg/kg),69%
same,"Tumor weight, mean",[1]; Spironolactone (100 mg/kg),0.292 g
Cc1cc(Cn2cnc3c2C[C@@H](C(=O)O)N(C(=O)C(c2ccccc2)c2ccccc2)C3)ccc1N(C)C [PD123319],"cell proliferation, WST1 absorbance (OD value, 450 nm), mean","PANC-1 cells; 10 μM, Table 8, 2 h, DMEM-10% FCS, control 3.922",2.724
same,"cell proliferation, WST1 absorbance (OD value, 450 nm), mean","PANC-1 cells; 10 μM, Table 10, 2 h, serum free media, control 3.443",2.120
same,"cell proliferation, WST1 absorbance (OD value, 450 nm), mean","PANC-1 cells; 10 μM, Table 12, 2 h, 10% FCS DMEM, N = 6, control 3.37",2.823
same,"cell proliferation, WST1 absorbance (OD value, 450 nm), mean","PANC-1 cells; 10 μM, Table 14, 2 h, serum free media, N = 6, control 1.208",1.048
same,"cell proliferation, WST1 absorbance (OD value, 450 nm), mean","PANC-1 cells; 30 μM, Table 8, 2 h, DMEM-10% FCS, control 3.922",2.60
same,"cell proliferation, WST1 absorbance (OD value, 450 nm), mean","PANC-1 cells; 30 μM, Table 10, 2 h, serum free media, control 3.443",1.970
same,"cell proliferation, WST1 absorbance (OD value, 450 nm), mean","PANC-1 cells; 30 μM, Table 12, 2 h, 10% FCS DMEM, N = 6, control 3.37",2.854
same,"cell proliferation, WST1 absorbance (OD value, 450 nm), mean","PANC-1 cells; 30 μM, Table 14, 2 h, serum free media, N = 6, control 1.208",0.7668
same,"cell proliferation, WST1 absorbance (OD value, 450 nm), mean","PANC-1 cells; 50 μM, Table 8, 2 h, DMEM-10% FCS, N = 1, control 3.922",1.951
same,"cell proliferation, WST1 absorbance (OD value, 450 nm), mean","PANC-1 cells; 50 μM, Table 10, 2 h, serum free media, control 3.443",2.146
same,"cell proliferation, WST1 absorbance (OD value, 450 nm), mean","PANC-1 cells; 50 μM, Table 12, 2 h, 10% FCS DMEM, N = 6, control 3.37",2.873
same,"cell proliferation, WST1 absorbance (OD value, 450 nm), mean","PANC-1 cells; 50 μM, Table 14, 2 h, serum free media, N = 6, control 1.208",0.728
same,"cell proliferation, WST1 absorbance (OD value, 450 nm), mean","HS766T cells; 10 μM, Table 9, 2 h, DMEM-10% FCS, control 2.025",1.336
same,"cell proliferation, WST1 absorbance (OD value, 450 nm), mean","HS766T cells; 10 μM, Table 11, 2 h, serum free media, control 2.0695",1.24
same,"cell proliferation, WST1 absorbance (OD value, 450 nm), mean","HS766T cells; 10 μM, Table 13, 2 h, 10% FCS DMEM, control 2.913",2.895
same,"cell proliferation, WST1 absorbance (OD value, 450 nm), mean","HS766T cells; 10 μM, Table 15, 2 h, serum free media, N = 6, control 1.906",1.708
same,"cell proliferation, WST1 absorbance (OD value, 450 nm), mean","HS766T cells; 30 μM, Table 11, 2 h, serum free media, control 2.0695",1.397
same,"cell proliferation, WST1 absorbance (OD value, 450 nm), mean","HS766T cells; 30 μM, Table 13, 2 h, 10% FCS DMEM, control 2.913",2.555
same,"cell proliferation, WST1 absorbance (OD value, 450 nm), mean","HS766T cells; 30 μM, Table 15, 2 h, serum free media, N = 6, control 1.906",1.56
same,"cell proliferation, WST1 absorbance (OD value, 450 nm), mean","HS766T cells; 50 μM, Table 11, 2 h, serum free media, control 2.0695",1.235
same,"cell proliferation, WST1 absorbance (OD value, 450 nm), mean","HS766T cells; 50 μM, Table 13, 2 h, 10% FCS DMEM, control 2.913",1.886
same,"cell proliferation, WST1 absorbance (OD value, 450 nm), mean","HS766T cells; 50 μM, Table 15, 2 h, serum free media, N = 6, control 1.906",1.154
same,Effective in inhibiting PDCA cell proliferation in vitro,"[4]; 10 μM, 30 μM, and 50 μM, presence or absence of serum",effective
same,Activity in rats,[5],active
